For this data set, the system named is KB-cell xenografts. Nature of the data set: Biodistribution of folate radiotracers in athymic nude mice bearing KB-cell xenografts, with or without antifolate. Type of data set: in vivo. The note with it: 4 h p.i.; antifolate named in label pre-injected 1 h before radiotracer. How it is done:
Preparation of cells for in vivo experiments: For subcutaneous inoculation of the mice sub-confluent cells were harvested by treatment with EDTA (1 mM) in PBS (1×, pH 7.4). The cells were then washed once with PBS and pelleted by spinning at 1000×g for 5 min at 20° C. The cells were resuspended in PBS to obtain a concentration of 50×10^6 cells/mL.
In Vivo Studies. 4-5-week-old female, athymic nude mice (CD1-Foxn1/nu) were purchased from Charles River Laboratories (Sulzfeld, Germany). Mice were housed under conditions of controlled temperature (26° C.), humidity (68%) and daily light cycle (12 h light/12 h dark). The animals were fed with a folate-deficient rodent diet (to reduce their serum folate to a level near that of humans) (Mathias et al, J. Nucl. Med. 1996; 37:1003-08). After an acclimation period of 5-7 days, the mice were inoculated subcutaneously with the tumour cell suspension (5×10^6 cells) into the subcutis of the axilla. Radiotracer distribution studies were performed 12-14 days after tumour cell inoculation. The radiotracer (100 μL, 1a: 3.5 MBq/mL or 1b: 7 MBq/mL) was administered via a lateral tail vein. Antifolates (MTX, RTX and PMX) were dosed according to literature experiments at the upper limit of the tolerated dose (Li et al, Clin. Exp. Pharmacol. Physiol. 2004; 31:267-70; Pritchard et al, Clin. Cancer Res. 2000; 6:4389-95; Hughes et al, Journal of Clinical Oncology 2002; 20:3533-44; Aherne et al, Br. J. Cancer 1998; 77:221-26). MTX was supplemented to the drinking water (80 mg/mL) or intravenously injected (400 μg), 24 h, 2 h, 1 h, 30 min and 15 min previous to the administration of radiotracer 1a. RTX (100 μg) and PMX (400 μg) respectively were administered intravenously 2 h, 1 h, 30 min and 15 min previous to the radiotracer 1a. The animals were sacrificed and dissected 4 h p.i. of the radiotracer 1a. Additional biodistribution experiments were performed (30 min), 1 h, 4 h and 24 h post injection of the radiotracer 1a or 1b respectively with (antifolate) pre-treated animals 1 h previous to the experiment. The selected tissues were removed, weighted, and counted for radioactivity to determine distribution of radioactivity within the test animal. The results were tabulated as percentage of the injected dose per gram (% ID/g) of weight tissue, using reference counts from a definite sample of the original injectate.

The record followed here is patent publication US9265746B2, “Method for cell-specific targeting” (priority 2006, dated 2016).

Consider `Nc1nc2ncc(CNc3ccc(C(=O)NC(CCC(=O)NCCCCCCn4cc5[n+](c4)[99Tc-5]4([C]#[O+])([C]#[O+])([C]#[O+])[NH2+]C(C5)C(=O)[O]4)C(=O)O)cc3)nc2c(=O)[nH]1` (stereo not drawn) [radiotracer 2a], for which the biodistribution blood was determined as 0.19 ± 0.18 % ID/g, the biodistribution bone worked out at 0.82 ± 0.13 % ID/g, the “biodistribution contents of intest.” value is reported as 7.72 ± 4.36 % ID/g and the biodistribution heart is given as 0.80 ± 0.60 % ID/g. The compound also had a biodistribution intestines of 0.79 ± 0.43 % ID/g, a biodistribution kidney of 42.02 ± 7.31 % ID/g, a biodistribution liver of 4.51 ± 1.29 % ID/g and a biodistribution lung of 0.85 ± 0.08 % ID/g. In addition, the biodistribution muscle is reported as 1.31 ± 0.28 % ID/g, the biodistribution spleen was found to be 0.30 ± 0.05 % ID/g, the biodistribution stomach came out at 0.62 ± 0.22 % ID/g and the biodistribution tumour is on record as 3.72 ± 0.89 % ID/g. This compound also came in with a tumour-to-blood of 12.29 ± 4.22, a tumour-to-kidney of 0.09 ± 0.02 and a tumour-to-liver of 0.88 ± 0.38.

In the case of `Nc1nc2ncc(CNc3ccc(C(=O)NC(CCC(=O)NCCCCCC[N+]45Cc6cccc[n+]6[99Tc-5]4([C]#[O+])([C]#[O+])([C]#[O+])[n+]4ccccc4C5)C(=O)O)cc3)nc2c(=O)[nH]1` (stereo not drawn) [radiotracer 3a], the biodistribution blood was 0.03 ± 0.01 % ID/g, the biodistribution bone was found to be 0.16 ± 0.02 % ID/g, the “biodistribution contents of intest.” value is reported as 2.49 ± 12.10 % ID/g and the biodistribution heart stood at 0.20 ± 0.09 % ID/g. The compound further registered a biodistribution intestines of 0.71 ± 0.40 % ID/g, a biodistribution kidney of 7.11 ± 0.75 % ID/g, a biodistribution liver of 1.72 ± 2.04 % ID/g and a biodistribution lung of 0.20 ± 0.02 % ID/g. Moreover, the biodistribution muscle is given as 0.27 ± 0.01 % ID/g, the biodistribution spleen amounted to 0.08 ± 0.02 % ID/g, the biodistribution stomach was 0.54 ± 0.58 % ID/g and the biodistribution tumour is given as 0.82 ± 0.27 % ID/g. The compound further showed a tumour-to-blood of 27.00 ± 14.60, a tumour-to-kidney of 0.12 ± 0.05 and a tumour-to-liver of 1.24 ± 1.03.
